Like-named read-outs stand apart in the source and are kept apart here.
What was measured:
[1] = Diluents lowering the melting point of pelargonic acid: visual appearance (crystal/clear) of pelargonic acid/diluent blends at low temperature
[2] = Wetting/spreading of a drop on a hydrophobic polystyrene dish; format: physicochemical; conditions: in water (0.5-3.7%)
Text: It was unexpectedly discovered that there is a synergy in wetting/spreading between C9 acid and phosphate ester exemplified by PE2 (C1216-30 phosphate ester). […] That is, a drop of the solution balls up with a large contact angle on the dish.

[3] = pelargonic acid 50 wt % + diluent 50 wt %
[4] = pelargonic acid 65 wt % + diluent 35 wt %
[5] = pelargonic acid 70 wt % + diluent 30 wt %
[6] = pelargonic acid 75 wt % + diluent 25 wt %
[7] = pelargonic acid 30 wt % + diluent 70 wt %
[8] = pelargonic acid 60 wt % + diluent 40 wt %
[9] = pelargonic acid 80 wt % + diluent 20 wt %

COC(=O)c1ccccc1O [Methyl salicylate]
diluent amount required to lower the melting point of pelargonic acid to 0° C. (or lower) [1]: 35% | appearance at 0° C. [1, 3]: Clear | appearance at −20° C. [1, 3]: Crystal | appearance at 0° C. [1, 4]: Clear | appearance at −20° C. [1, 4]: Crystal | appearance at 0° C. [1, 5]: Crystal | appearance at −20° C. [1, 5]: Crystal | appearance at 0° C. [1, 6]: Crystal | appearance at −20° C. [1, 6]: Crystal

COC(=O)c1ccccc1 [Methyl benzoate]
appearance at 0° C. [1]: Clear | appearance at −20° C. [1]: Crystal

CCCCC(CC)C(=O)O (stereo not drawn) [2-EH acid, 2-ethyhexanoic acid]
diluent amount required to lower the melting point of pelargonic acid to 0° C. (or lower) [1]: 30% | appearance at 0° C. [1, 7]: Clear | appearance at −20° C. [1, 7]: Clear | appearance at 0° C. [1, 3]: Clear | appearance at −20° C. [1, 3]: Crystal | appearance at 0° C. [1, 8]: Clear | appearance at −20° C. [1, 8]: Crystal | appearance at 0° C. [1, 5]: Clear | appearance at −20° C. [1, 5]: Crystal | appearance at 0° C. [1, 9]: Crystal | appearance at −20° C. [1, 9]: Crystal

CCCCC(CC)CO (stereo not drawn) [2-EH alcohol, 2-ethylhexanol]
diluent amount required to lower the melting point of pelargonic acid to 0° C. (or lower) [1]: 30% | appearance at 0° C. [1, 7]: Clear | appearance at −20° C. [1, 7]: Clear | appearance at 0° C. [1, 3]: Clear | appearance at −20° C. [1, 3]: Crystal | appearance at 0° C. [1, 8]: Clear | appearance at −20° C. [1, 8]: Crystal | appearance at 0° C. [1, 5]: Clear | appearance at −20° C. [1, 5]: Crystal | appearance at 0° C. [1, 9]: Crystal | appearance at −20° C. [1, 9]: Crystal

CCCCCCCCC(=O)O [C9 acid, pelargonic acid]
ability to wet a hydrophobic polystyrene dish [2]: not able to wet

CCCCCCC(=O)O [Heptanoic acid]
diluent amount required to lower the melting point of pelargonic acid to 0° C. (or lower) [1]: 25% | appearance at 0° C. [1, 6]: Clear | appearance at −20° C. [1, 6]: Crystal

CCCCOC(C)=O [Butyl Acetate]
appearance at 0° C. [1, 7]: Clear | appearance at −20° C. [1, 7]: Clear | appearance at 0° C. [1, 3]: Clear | appearance at −20° C. [1, 3]: Crystal | appearance at 0° C. [1, 4]: Clear | appearance at −20° C. [1, 4]: Crystal | appearance at 0° C. [1, 5]: Clear | appearance at −20° C. [1, 5]: Crystal | appearance at 0° C. [1, 6]: Clear | appearance at −20° C. [1, 6]: Crystal

CCCCC(=O)O [Valeric C5 acid, valeric acid]
diluent amount required to lower the melting point of pelargonic acid to 0° C. (or lower) [1]: 30% | appearance at 0° C. [1, 5]: Clear | appearance at −20° C. [1, 5]: Crystal

C=C(C)[C@H]1CC=C(C)CC1 [d-limonene]
appearance at 0° C. [1, 7]: Clear | appearance at −20° C. [1, 7]: Clear | appearance at 0° C. [1, 3]: Clear | appearance at −20° C. [1, 3]: Crystal | appearance at 0° C. [1, 4]: Clear | appearance at −20° C. [1, 4]: Crystal | appearance at 0° C. [1, 5]: Clear | appearance at −20° C. [1, 5]: Crystal | appearance at 0° C. [1, 6]: Crystal | appearance at −20° C. [1, 6]: Crystal

CCOP(=O)(OCC)OCC [triethylphosphate]
appearance at 0° C. [1]: Clear

CCCCCCCCOC(=O)C(C)O (stereo not drawn) [Octyl lactate]
diluent amount required to lower the melting point of pelargonic acid to 0° C. (or lower) [1]: 30% | appearance at 0° C. [1, 7]: Clear | appearance at −20° C. [1, 7]: Crystal | appearance at 0° C. [1, 3]: Clear | appearance at −20° C. [1, 3]: Crystal | appearance at 0° C. [1, 4]: Crystal | appearance at −20° C. [1, 4]: Crystal | appearance at 0° C. [1, 5]: Crystal | appearance at −20° C. [1, 5]: Crystal | appearance at 0° C. [1, 6]: Crystal | appearance at −20° C. [1, 6]: Crystal
